Source: patent US20190284243A1, “BINDING PEPTIDES” (University of Copenhagen, priority 2016, published 2019)
Bridge positions count the residues as written; N and C are the ends. Square brackets hold non-standard residues; d marks the D form. Ends that are not written are not given here. Aha = [N-]=[N+]=NCC[C@H](N)C(=O)O; Pra = C#CC[C@H](N)C(=O)O

What was measured:
Beads modified with (2) = experiment: Fluorescent β-bodies incubated with beads modified with (2); assay type: binding; conditions: for Binding of fluorescent β-body to beads modified with (2): FIG. 8; for Kd: bead-(2) with fluorescent β-body
Protocol: (§1) A fluorescent probe was attached to (1), (2) AND (3). The fluorescent β-bodies were then incubated with: • Beads modified with NHAc; or • Beads modified with (1); or • Beads modified with (2).

Beads modified with (1) = experiment: Fluorescent β-bodies incubated with beads modified with (1); assay type: binding; conditions: FIG. 8
Protocol: as §1

Il2 = Il2 (Homo sapiens, UniProt P60568); experiment: Binding of β-bodies with the target compound (Table 1), Il2; conditions: Purpose Il2; tested for binding with the target compound
Interleukin 2 = Interleukin 2 (Homo sapiens, UniProt P60568); experiment: Sandwich binding assay on PEGA beads, IL2 model
Protocol: (§2) For sandwich assays β-bodies identified as described in Examples 1 and 2 were synthesized by standard Fmoc-based solid phase peptide synthesis on biocompatible PEGA-beads (e.g. PEGA1900 which has a porosity allowing penetration of proteins up to 70 kDa). PEGA beads are available from Sigma Aldrich.
The sandwich binding assay was performed as follows: four beads with ligand C prepared as described above were added to 50 μL MilliQ water in a microtiter well containing 100 nM of the peptide D. The well was imaged with an ICX73 fluorescence microscope (Olympus) using a ROX filter cube.
The intensity of the fluorescence is a measure of the concentration of IL2 and the affinity of the interaction. The result obtained after 3 min. incubation is shown in FIG. 10 and after 20 min. incubation in FIG. 1D.

[1] = target: T1, glycine receptor binding site of gephyrin (peptide binding site) (Homo sapiens, UniProt Q9NQX3); experiment: Affinity of β-bodies to the gephyrin peptide binding site; conditions: compared with original peptide SEQ ID NO: 41
T1 sequence (Q9NQX3 1-736): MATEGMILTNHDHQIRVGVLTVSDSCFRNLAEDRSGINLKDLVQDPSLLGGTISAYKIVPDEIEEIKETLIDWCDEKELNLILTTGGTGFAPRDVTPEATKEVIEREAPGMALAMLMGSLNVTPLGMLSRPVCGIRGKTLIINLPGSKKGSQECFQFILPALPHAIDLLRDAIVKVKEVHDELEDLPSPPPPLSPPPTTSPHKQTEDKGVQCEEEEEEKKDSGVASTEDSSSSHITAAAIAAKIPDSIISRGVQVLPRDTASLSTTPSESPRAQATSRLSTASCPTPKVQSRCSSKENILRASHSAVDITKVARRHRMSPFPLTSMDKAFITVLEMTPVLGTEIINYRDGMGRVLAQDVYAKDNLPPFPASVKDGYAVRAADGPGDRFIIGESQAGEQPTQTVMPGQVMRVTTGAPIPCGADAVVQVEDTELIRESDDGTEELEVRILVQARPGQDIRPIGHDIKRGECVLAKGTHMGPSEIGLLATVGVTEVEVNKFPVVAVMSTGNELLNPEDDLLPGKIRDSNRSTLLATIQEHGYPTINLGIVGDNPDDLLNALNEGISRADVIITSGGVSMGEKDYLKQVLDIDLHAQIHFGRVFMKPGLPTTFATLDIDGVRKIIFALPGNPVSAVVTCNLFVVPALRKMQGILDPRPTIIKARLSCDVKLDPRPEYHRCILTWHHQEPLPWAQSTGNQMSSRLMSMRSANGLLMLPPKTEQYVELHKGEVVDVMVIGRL
Protocol: The following β-body TTVTGTLYPGTLLGFETT (SEQ ID NO: 41) underwent optimization via alanine scanning. The resulting 9 β-bodies were tested for their affinity to the glycine receptor binding site of gephyrin (peptide binding site). The affinity of the original peptide could be improved and optimized β-bodies were found having the following sequences CTVTGTLYPGTLLGFETC (SEQ ID NO: 42) and TTVTGTLYPGTLLGAATT (SEQ ID NO: 43).

Il1 [2] = experiment: Binding of β-bodies with the target compound (Table 1), Il1; conditions: Purpose Il1; tested for binding with the target compound
POI = experiment: Screening of OBOC β-body library with AMC-labelled POI; assay type: binding; conditions: POI 10 nM, 2 h incubation; site of interaction not determined
Protocol: The library of K(TX)4PG(XT)4EG was synthesized on HMBA-PEGA1900 resin by the split—mix method essentially as described in Christensen et al, 2003 and was deprotected with 95% TFA. The POI was dissolved in phosphate buffer at pH 7.5, labeled with aminomethylcoumarin using AMC-(CH2)3—CO—OSu (4 eqv, 30 min) and purified by FPLC. […] The protein was dissolved at 100 nM concentration and the library was incubated for 2 h with this solution at 10 fold dilution (10 nM). The library was inspected under a ICX73 fluorescence microscope using a […]. Beads with strong AMC-fluorescence were collected in separate Eppendorph tubes using a microsyringe. The beads were washed and 5% triethylamine in water was added. After incubation overnight the supernatant was transferred to another eppendorph tube and the bead was washed with 70% acetonitril/water. The combined solutions were concentrated to dryness twice using a speedvacc and the residue dissolved in 50% acetonitrile/water. […] The site of interaction on the POI was not determined.

Gephyrin = target: T2, Gephyrin (Homo sapiens, UniProt Q9NQX3); experiment: Binding of β-bodies with the target compound (Table 1), Gephyrin; conditions: Purpose Gephyrin; tested for binding with the target compound
T2 sequence (Q9NQX3 1-736): T1 sequence (Q9NQX3 1-736)

Interleukin 1 = experiment: Sandwich binding assay on PEGA beads, IL1 model
From the text: as §2
The intensity of the fluorescence is a measure of the concentration of IL1 and the affinity of the interaction.

interleukin 6 = interleukin 6 (Homo sapiens, UniProt P05231); experiment: Sandwich binding assay on PEGA beads, IL6 model
Protocol: as §2
The sandwich binding assay was performed as follows: two beads with ligand E prepared as described above were contained in separate wells and were added to 50 μL MilliQ water in a microtiter well containing 100 nM of the peptide F. […]
The beads were washed twice with PBS to improve signal to noise. The well was imaged with an ICX73 fluorescence microscope (Olympus) using a ROX filter cube.

Il1 [3] = experiment: Selectivity assay GFP vs. IL1: beads incubated with ROX-IL1; assay type: binding; conditions: ROX-IL1 100 nM, both bead types incubated at the same time
From the text: The same experiment was repeated with IL1.

GFP = GFP 60 nM, both bead types incubated at the same time
Protocol: GFP (60 nM) was incubated with different β-body beads at the same time, a first type of β-body beads specific for GFP (β-body SEQ ID NO: 1;
[…]) and a second type of β-body beads specific for IL1 (β-body SEQ ID NO: 5).

[4] = ligand 1 beads + 100 nM ligand 2, Interleukin 1 50 nM, 20 min
[5] = ligand 1 beads + 100 nM ligand 2, without IL1 (interaction between the two β-bodies)

Sequence of interleukin 6 (P05231 30-212, species assumed): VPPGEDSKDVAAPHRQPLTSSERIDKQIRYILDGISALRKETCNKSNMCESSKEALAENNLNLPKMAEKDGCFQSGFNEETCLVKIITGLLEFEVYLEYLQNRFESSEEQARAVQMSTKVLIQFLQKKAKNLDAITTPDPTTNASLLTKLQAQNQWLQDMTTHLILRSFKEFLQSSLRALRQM
Sequence of Interleukin 2 (P60568 21-153, species assumed): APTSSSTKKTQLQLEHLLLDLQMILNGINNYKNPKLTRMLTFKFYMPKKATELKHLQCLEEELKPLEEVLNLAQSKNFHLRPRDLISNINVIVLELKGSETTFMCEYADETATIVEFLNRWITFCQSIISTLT
Sequence of Il2 (P60568 21-153, species assumed): as above

TYTYTYPGLTRTHT [SEQ ID NO: 57]
Binding of fluorescent β-body to beads modified with (2) (Beads modified with (2)): best bind | Kd (Beads modified with (2)): 0.7 µM | Binding of fluorescent β-body to beads modified with (1) (Beads modified with (1)): high affinity

TRTLTYTEPGITQTKTEA (Designed peptide) [SEQ ID NO: 14]
Binding (Il2): High | ROX fluorescence accumulation in the beads (Interleukin 2; ligand 3 beads + 100 nM ligand 4, Interleukin 2 50 nM, 3 and 20 min): positive signal | ROX fluorescence accumulation in the beads (Interleukin 2; ligand 3 beads + 100 nM ligand 4, Interleukin 2 50 nM, 3 and 20 min, listed as D): accumulation of significant ROX fluorescence | ROX fluorescence accumulation in the beads (Interleukin 2; ligand 3 beads + 100 nM ligand 4, without IL2 (interaction between the two β-bodies)): no signal | ROX fluorescence accumulation in the beads (Interleukin 2; ligand 3 beads + 100 nM ligand 4, without IL2 (interaction between the two β-bodies), listed as D): No fluorescence accumulation over background

Abu(N3)-TVTGTLYPGTLLGFET-Pra ([Aha]TVTGTLYPGTLLGFET[Pra]; triazole 1-18 (inferred)) [SEQ ID NO: 44]
affinity to the glycine receptor binding site of gephyrin [1]: unchanged

TWTETYTWTEPGDTQTLTITNT (Designed peptide) [SEQ ID NO: 11]
Binding (Il1 [2]): High

KTGTQNLTGPGRTHTQTATEG (Designed peptide; PEPTIDE (1)..(21) GFP) [SEQ ID NO: 3]
Binding of library beads to AMC-labelled POI (AMC-fluorescence) (POI): strong binding

PraTWTLTHTPGTMEITET-Abu(N3)-OH ([Pra]TWTLTHTPGTMEITET[Aha]-OH; triazole 1-18 (inferred)) [SEQ ID NO: 39]
Binding (Gephyrin): Medium

TKTDRVTEPGRTMTFTGT (Designed peptide) [SEQ ID NO: 7]
ROX fluorescence accumulation in the beads (Interleukin 1; [4]): positive signal | ROX fluorescence accumulation in the beads (Interleukin 1; ligand 1 beads + 100 nM ligand 2, Interleukin 1 50 nM, 20 min, listed as B): accumulation of significant ROX fluorescence | ROX fluorescence accumulation in the beads (Interleukin 1; [5]): no signal | ROX fluorescence accumulation in the beads (Interleukin 1; ligand 1 beads + 100 nM ligand 2, without IL1 (interaction between the two β-bodies), listed as B): No fluorescence accumulation over background

HTWTDTLTRPGYTVTHTLTL (Designed peptide) [SEQ ID NO: 17]
ROX fluorescence accumulation in the bead (interleukin 6; ligand 5 bead + 100 nM ligand 6, interleukin 6 20 nM, 20 min, listed as E): accumulation of significant ROX fluorescence | ROX fluorescence accumulation in the bead (interleukin 6; ligand 5 bead + 100 nM ligand 6, interleukin 6 20 nM, 20 min, listed as ligand 5): positive signal | ROX fluorescence accumulation in the bead (interleukin 6; ligand 5 bead + 100 nM ligand 6, without IL6 (interaction between the two β-bodies), listed as E): No fluorescence accumulation over background | ROX fluorescence accumulation in the bead (interleukin 6; ligand 5 bead + 100 nM ligand 6, without IL6 (interaction between the two β-bodies), listed as ligand 5): no signal

Pra-TVTGTLYPGTLLGFET-Abu(N3) ([Pra]TVTGTLYPGTLLGFET[Aha]; triazole 1-18 (inferred)) [SEQ ID NO: 34]
affinity to the glycine receptor binding site of gephyrin [1]: unchanged

TITKTARYTMPGKTLTKTGTLTG (Designed peptide) [SEQ ID NO: 45]
Binding (Gephyrin): Medium

EPraDTYTETYPGRTITWTIAbu(N3)DG (E[Pra]DTYTETYPGRTITWTI[Aha]DG; triazole 2-19 (inferred)) [SEQ ID NO: 9]
Binding (Il1 [2]): High

Pra-ITKTARYTMPGKTLTKTGTL-Abu(N3)-G ([Pra]ITKTARYTMPGKTLTKTGTL[Aha]G; triazole 1-22 (inferred)) [SEQ ID NO: 46]
Binding (Gephyrin): Medium

TTYTYPGDTFTI (Designed peptide) [SEQ ID NO: 58]
Binding of fluorescent β-body to beads modified with (2) (Beads modified with (2)): high affinity | Binding of fluorescent β-body to beads modified with (1) (Beads modified with (1)): best bind

TFTFTFPGLTRTHT [SEQ ID NO: 59]
Kd (Beads modified with (2)): 5 µM

KTYTYNYTGPGRTSTATLTEG (Designed peptide) [SEQ ID NO: 56]
Binding of library beads to AMC-labelled POI (AMC-fluorescence) (POI): strong binding

CTVTGTLYPGTLLGFETC (Designed peptide) [SEQ ID NO: 42]
affinity to the glycine receptor binding site of gephyrin [1]: improved

Pra-YTYTDTTPGVTRTLTWG-Abu(N3)-OH ([Pra]YTYTDTTPGVTRTLTWG[Aha]-OH; triazole 1-19 (inferred)) [SEQ ID NO: 38]
Binding (Gephyrin): Medium

TMTDTDTYPGFTDTLTHA (Designed peptide) [SEQ ID NO: 16]
ROX fluorescence accumulation in the bead (interleukin 6; ligand 5 bead + 100 nM ligand 6, interleukin 6 20 nM, 20 min): positive signal | ROX fluorescence accumulation in the bead (interleukin 6; ligand 5 bead + 100 nM ligand 6, interleukin 6 20 nM, 20 min, listed as F): accumulation of significant ROX fluorescence | ROX fluorescence accumulation in the bead (interleukin 6; ligand 5 bead + 100 nM ligand 6, without IL6 (interaction between the two β-bodies)): no signal | ROX fluorescence accumulation in the bead (interleukin 6; ligand 5 bead + 100 nM ligand 6, without IL6 (interaction between the two β-bodies), listed as F): No fluorescence accumulation over background

TTVTGTLYPGTLLGAATT (Designed peptide) [SEQ ID NO: 43]
affinity to the glycine receptor binding site of gephyrin [1]: improved

ETDTYTETYPGYTSTWTITD (Designed peptide) [SEQ ID NO: 5]
Binding of β-body beads to IL1 (Il1 [3]): underwent binding | ROX fluorescence accumulation in the beads (Interleukin 1; [4]): positive signal | ROX fluorescence accumulation in the beads (Interleukin 1; ligand 1 beads + 100 nM ligand 2, Interleukin 1 50 nM, 20 min, listed as A): accumulation of significant ROX fluorescence | ROX fluorescence accumulation in the beads (Interleukin 1; [5]): no signal | ROX fluorescence accumulation in the beads (Interleukin 1; ligand 1 beads + 100 nM ligand 2, without IL1 (interaction between the two β-bodies), listed as A): No fluorescence accumulation over background | Binding of β-body beads to GFP (GFP): only β-body beads specific for GFP underwent binding

KTQTYNGTGPGRTGTVTYTEG (Designed peptide) [SEQ ID NO: 55]
Binding of library beads to AMC-labelled POI (AMC-fluorescence) (POI): strong binding
